Like-named read-outs stand apart in the source and are kept apart here.
What was measured:
[1] = test system: α-glucosidase; conditions: cited from earlier work
[2] = target: T1, glucosidase I (Bos taurus, UniProt A0A3Q1M9D9); assay: Assay for glucosidase I activity (14C-Glc3Man9GlcNAc2 substrate, ConA-Sepharose, scintillation counting); format: biochemical, calf; conditions: 1 mM concentration
T1 construct: Glucosidase I was solubilized from calf pancreas microsomes; from tissue; host or cells: calf pancreas microsomes
T1 sequence (A0A3Q1M9D9 1-839): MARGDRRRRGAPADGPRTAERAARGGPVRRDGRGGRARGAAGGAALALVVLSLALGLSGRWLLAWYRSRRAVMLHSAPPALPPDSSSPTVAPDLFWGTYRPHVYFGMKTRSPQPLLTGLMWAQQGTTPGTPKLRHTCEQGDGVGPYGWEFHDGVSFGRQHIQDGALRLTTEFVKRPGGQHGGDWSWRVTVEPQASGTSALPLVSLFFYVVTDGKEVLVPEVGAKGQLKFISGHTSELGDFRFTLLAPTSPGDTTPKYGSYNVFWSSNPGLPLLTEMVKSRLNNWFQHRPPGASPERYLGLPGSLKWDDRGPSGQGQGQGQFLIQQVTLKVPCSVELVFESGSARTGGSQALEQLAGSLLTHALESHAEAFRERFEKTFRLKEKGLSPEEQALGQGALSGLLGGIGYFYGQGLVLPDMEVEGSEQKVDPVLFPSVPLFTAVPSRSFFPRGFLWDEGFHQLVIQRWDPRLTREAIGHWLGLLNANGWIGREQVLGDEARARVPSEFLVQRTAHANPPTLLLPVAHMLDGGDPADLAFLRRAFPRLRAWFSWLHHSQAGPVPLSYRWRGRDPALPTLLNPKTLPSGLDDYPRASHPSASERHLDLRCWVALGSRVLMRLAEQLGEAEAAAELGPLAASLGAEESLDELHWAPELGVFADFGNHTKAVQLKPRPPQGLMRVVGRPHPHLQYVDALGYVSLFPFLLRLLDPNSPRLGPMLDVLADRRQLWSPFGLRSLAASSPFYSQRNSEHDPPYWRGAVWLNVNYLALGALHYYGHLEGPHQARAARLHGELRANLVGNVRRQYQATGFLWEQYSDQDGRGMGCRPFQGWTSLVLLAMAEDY
Protocol: Some of the compounds described herein were evaluated as inhibitors of glucosidase I activity. Glucosidase I was purified by a literature procedure as follows. To prepare an affinity matrix, carboxypentyl-deoxynojirimycin was coupled with Affigel 102 according to Shailubhai et al^51. Glucosidase I was solubilized from calf pancreas microsomes, and purified from glucosidase II activity by affinity chromatography according to the same authors.
Substrates for Assay of Glucosidase I ^14 C-labelled Glc3 Man9 GlcNAc2 -PP-Dol was prepared by the incubation of UDP-[^14 C]Glc with calf pancreas microsomes as described by Herscovien et al^52. Glc3 Man9 GlcNAc2 was released by mild acid hydrolysis and purified by BioGel P4 chromatography.
Assay for Glucosidase I Activity
Affinity purified glucosidase I was assayed as described by Saunier et al.^53 by adsorption of undigested substrate […] to ConA-Sepharose and scintillation counting of [^14 C]Glc in the column eluent. Oligosaccharides as potential inhibitors were evaluated using castanospermine as a baseline inhibitor.

[3] = test system: α-glucosidase I from rat liver microsomes; conditions: cited from earlier work
[4] = test system: α-glucosidase I from bovine mammary gland; conditions: cited from earlier work
[5] = test system: α-glucosidase I from yeast microsomal preparation; conditions: cited from earlier work
[6] = test system: α-glucosidase I from mung bean seedlings; conditions: cited from earlier work
[7] = affinity purified glucosidase I from calf pancreas microsomes, read-out: inhibition of glucosidase I activity

C[C@H]1O[C@H](O[C@H]2[C@H](O)[C@@H](O)[C@@H](O[C@H]3[C@H](O)[C@@H](O)[C@@H](O)O[C@@H]3CO)O[C@@H]2CO)[C@H](O)[C@@H](O)[C@@H]1N[C@H]1C[C@H](CO)[C@@H](O)[C@H](O)[C@H]1O [dihydroacarbose]
α-glucosidase inhibition [1]: potent

C[C@H]1O[C@H](O[C@H]2[C@H](O)[C@@H](O)[C@@H](O[C@H]3[C@H](O)[C@@H](O)C(O)O[C@@H]3CO)O[C@@H]2CO)[C@H](O)[C@@H](O)[C@@H]1N[C@H]1C=C(CO)[C@@H](O)[C@H](O)[C@H]1O (stereo partly drawn) [acarbose]
α-glucosidase inhibition [1]: potent

COC(=O)CCCCCCCCO[C@H]1O[C@H](CO)[C@@H](O)[C@H](O)[C@H]1O[C@H]1O[C@H](CO)[C@@H](O)[C@H](O)[C@H]1O [compound 44, 8-Methoxycarbonyloctyl 2-O-(α-D-glucopyranosyl)-α-D-glucopyranoside]
inhibition at 1000 µM [2, 7]: 20%

COC(=O)CCCCCCCCO[C@H]1O[C@H](CN)[C@@H](O)[C@H](O)[C@H]1O[C@H]1O[C@H](CO)[C@@H](O)[C@H](O)[C@H]1O [compound 57, 8-Methoxycarbonyloctyl 6-amino-6-deoxy-2-O-(α-D-glucopyranosyl)-α-D-glucopyranoside]
inhibition at 1000 µM ([2]; versus known compound 44, read-out: increase in inhibition activity relative to compound 44): 70%
inhibition at 1000 µM [2, 7]: 34%

OC[C@H]1O[C@H](O[C@H]2C(O)O[C@H](CO)[C@@H](O)[C@@H]2O)[C@H](O)[C@@H](O)[C@@H]1O (stereo partly drawn) [Kojibiose]
inhibition of α-glucosidase I [3]: inhibited
inhibition of α-glucosidase I [4]: inhibited
inhibition of α-glucosidase I [5]: inhibited
inhibition of α-glucosidase I [6]: inhibited
